# Experimental data taken from ChEMBL document CHEMBL5390204, “Persephacin Is a Broad-Spectrum Antifungal Aureobasidin Metabolite That Overcomes Intrinsic Resistance in Aspergillus fumigatus” (J Nat Prod, 2023).
# Activity calls are given as the source filed them. The calls are words filed in the database; no cut-off is given here. Numbered stars: 1 amine (or outer) side, 2 acyl side, 3 side chain; on linkers, the order of the positions; unused ones are H or OH. Square brackets hold non-standard residues; d marks the D form. Peptide text beside a SMILES is read from it. X1 = CC[C@@H](C)[C@@H](O[*:1])C(=O)[*:2]; NMeVal(β-OH) = CN[C@H](C(=O)O)C(C)(C)O; NMeF = CN[C@@H](Cc1ccccc1)C(=O)O; aIle = CC[C@@H](C)[C@H](N)C(=O)O; NMeV = CN[C@H](C(=O)O)C(C)C
# Tests used:
# Pichia kudriavzevii [1] = test: Antifungal activity against Candida krusei ATCC 6258 (Y-7179) assessed as reduction in fungal growth incubated for 48 hrs by microplate reader analysis; assay type: functional
# Mucor circinelloides [2] = test: Antifungal activity against Mucor circinelloides 235C7 assessed as reduction in fungal viability incubated for 48 hrs by microplate reader analysis; assay type: functional
# Aspergillus flavus [3] = test: Antifungal activity against Aspergillus flavus NRRL485 assessed as reduction in fungal growth incubated for 48 hrs by microplate reader analysis; assay type: functional
# Hamigera insecticola [4] = test: Antifungal activity against Hamigera insecticola NRRL35442 assessed as reduction in fungal growth incubated for 48 hrs by microplate reader analysis; assay type: functional
# Paecilomyces lilacinus [5] = test: Antifungal activity against Paecilomyces lilacinus 165E10 assessed as reduction in fungal growth incubated for 48 hrs by microplate reader analysis; assay type: functional; conditions: Purpureocillium lilacinum
# Aspergillus fumigatus [6] = test: Antifungal activity against Aspergillus fumigatus MYA 3627 assessed as reduction in fungal growth incubated for 48 hrs by microplate reader analysis; assay type: functional
# Aspergillus niger [7] = test: Antifungal activity against Aspergillus niger FGSC A732 assessed as reduction in fungal viability incubated for 48 hrs by microplate reader analysis; assay type: functional
# Pichia kudriavzevii [8] = test: Antifungal activity against Candida krusei ATCC 6258 (Y-7179) assessed as reduction in fungal viability incubated for 48 hrs by microplate reader analysis; assay type: functional
# Aspergillus fumigatus [9] = test: Antifungal activity against Aspergillus fumigatus NRRL6113 assessed as reduction in fungal growth incubated for 48 hrs by microplate reader analysis; assay type: functional
# Curvularia lunata [10] = test: Antifungal activity against Curvularia lunata NRRL6409 assessed as reduction in fungal viability incubated for 48 hrs by microplate reader analysis; assay type: functional
# Fusarium solani [11] = test: Antifungal activity against Fusarium solani 243G2 assessed as reduction in fungal viability incubated for 48 hrs by microplate reader analysis; assay type: functional
# Rhizopus arrhizus [12] = test: Antifungal activity against Rhizopus oryzae FGSC 9543 assessed as reduction in fungal growth incubated for 48 hrs by microplate reader analysis; assay type: functional
# Rhizopus arrhizus [13] = test: Antifungal activity against Rhizopus oryzae FGSC 9543 assessed as reduction in fungal viability incubated for 48 hrs by microplate reader analysis; assay type: functional
# Aspergillus terreus [14] = test: Antifungal activity against Aspergillus terreus 191A6 assessed as reduction in fungal growth incubated for 48 hrs by microplate reader analysis; assay type: functional
# Candida tropicalis [15] = test: Antifungal activity against Candida tropicalis ATCC750 (Y-12699) assessed as reduction in fungal viability incubated for 48 hrs by microplate reader analysis; assay type: functional
# Aspergillus terreus [16] = test: Antifungal activity against Aspergillus terreus 191A6 assessed as reduction in fungal viability incubated for 48 hrs by microplate reader analysis; assay type: functional
# Aspergillus fumigatus [17] = test: Antifungal activity against Aspergillus fumigatus MYA 3627 assessed as reduction in fungal viability incubated for 48 hrs by microplate reader analysis; assay type: functional
# Cryptococcus neoformans [18] = test: Antifungal activity against Cryptococcus neoformans H99 assessed as reduction in fungal growth incubated for 48 hrs by microplate reader analysis; assay type: functional
# Cryptococcus neoformans [19] = test: Antifungal activity against Cryptococcus neoformans H99 assessed as reduction in fungal viability incubated for 48 hrs by microplate reader analysis; assay type: functional
# Fusarium solani [20] = test: Antifungal activity against Fusarium solani 243G2 assessed as reduction in fungal growth incubated for 48 hrs by microplate reader analysis; assay type: functional
# Hamigera insecticola [21] = test: Antifungal activity against Hamigera insecticola NRRL35442 assessed as reduction in fungal viability incubated for 48 hrs by microplate reader analysis; assay type: functional
# Aspergillus flavus [22] = test: Antifungal activity against Aspergillus flavus NRRL485 assessed as reduction in fungal viability incubated for 48 hrs by microplate reader analysis; assay type: functional
# Aspergillus fumigatus [23] = test: Antifungal activity against Aspergillus fumigatus NRRL6113 assessed as reduction in fungal viability incubated for 48 hrs by microplate reader analysis; assay type: functional
# Paecilomyces lilacinus [24] = test: Antifungal activity against Paecilomyces lilacinus 165E10 assessed as reduction in fungal viability incubated for 48 hrs by microplate reader analysis; assay type: functional, Purpureocillium lilacinum
# Candida albicans [25] = test: Antifungal activity against Candida albicans SC5314 assessed as reduction in fungal growth incubated for 48 hrs by microplate reader analysis; assay type: functional
# Aspergillus niger [26] = test: Antifungal activity against Aspergillus niger FGSC A732 assessed as reduction in fungal growth incubated for 48 hrs by microplate reader analysis; assay type: functional
# Candida parapsilosis [27] = test: Antifungal activity against Candida parapsilosis ATCC 22019 (Y-12969) assessed as reduction in fungal growth incubated for 48 hrs by microplate reader analysis; assay type: functional; conditions: Lodderomyces parapsilosis
# Candida albicans [28] = test: Antifungal activity against Candida albicans SC5314 assessed as reduction in fungal viability incubated for 48 hrs by microplate reader analysis; assay type: functional
# Candida parapsilosis [29] = test: Antifungal activity against Candida parapsilosis ATCC 22019 (Y-12969) assessed as reduction in fungal viability incubated for 48 hrs by microplate reader analysis; assay type: functional
# Aspergillus fumigatus [30] = test: Antifungal activity against Aspergillus fumigatus NRRL5109 assessed as reduction in fungal viability incubated for 48 hrs by microplate reader analysis; assay type: functional
# Candida albicans [31] = test: Antifungal activity against Candida albicans ATCC 10231 assessed as reduction in fungal growth incubated for 48 hrs by microplate reader analysis; assay type: functional
# Mucor circinelloides [32] = test: Antifungal activity against Mucor circinelloides 235C7 assessed as reduction in fungal growth incubated for 48 hrs by microplate reader analysis; assay type: functional
# Aspergillus fumigatus [33] = test: Antifungal activity against Aspergillus fumigatus NRRL5109 assessed as reduction in fungal growth incubated for 48 hrs by microplate reader analysis; assay type: functional
# Curvularia lunata [34] = test: Antifungal activity against Curvularia lunata NRRL6409 assessed as reduction in fungal growth incubated for 48 hrs by microplate reader analysis; assay type: functional
# Candida tropicalis [35] = test: Antifungal activity against Candida tropicalis ATCC750 (Y-12699) assessed as reduction in fungal growth incubated for 48 hrs by microplate reader analysis; assay type: functional
# Candida albicans [36] = test: Antifungal activity against Candida albicans ATCC 10231 assessed as reduction in fungal viability incubated for 48 hrs by microplate reader analysis; assay type: functional
# Candida albicans [37] = test: Antifungal activity against Candida albicans SC5314 infected in pig cornea assessed as suppression of fungal growth at 5 % administered post fungal infection measured after 4 days by microscopic analysis; assay type: functional, organism-based; conditions: time 4.0 day
# Aspergillus fumigatus [38] = test: Antifungal activity against Aspergillus fumigatus NRRL5109 infected in pig cornea assessed as suppression of fungal growth at 5 % administered post fungal infection measured after 4 days by microscopic analysis; assay type: functional, organism-based; conditions: time 4.0 day
# Candida albicans [39] = test: Antifungal activity against fluconazole-resistant Candida albicans SC5314 infected in pig cornea assessed as suppression of fungal growth at 5 % administered post fungal infection measured after 4 days by microscopic analysis; assay type: functional, organism-based; conditions: time 4.0 day
structure (smiles),measurement,setting,value
CC[C@@H](C)[C@@H]1NC(=O)[C@@H]2CCCN2C(=O)[C@H](Cc2ccccc2)N(C)C(=O)[C@H](Cc2ccccc2)NC(=O)[C@H](C(C)C)N(C)C(=O)[C@@H]([C@H](C)CC)OC(=O)[C@H](C(C)(C)O)N(C)C(=O)[C@H](CC(C)C)NC(=O)[C@H](C(C)C)N(C)C1=O [AUREOBASIDIN A] (cyclo(F[NMeF]P[aIle][NMeV]L[NMeVal(β-OH)][X1][NMeV])),MFC,Pichia kudriavzevii [1],2.5 µM
same,MIC80,Pichia kudriavzevii [1],1.3 µM
same,MFC<=99.9,Mucor circinelloides [2],>10 µM
same,MFC,Aspergillus flavus [3],> 10 µM
same,MIC80,Aspergillus flavus [3],> 10 µM
same,MFC,Hamigera insecticola [4],> 10 µM
same,MIC80,Hamigera insecticola [4],0.6 µM
same,MFC,Paecilomyces lilacinus [5],> 10 µM
same,MIC80,Paecilomyces lilacinus [5],5 µM
same,MFC,Aspergillus fumigatus [6],> 10 µM
same,MIC80,Aspergillus fumigatus [6],> 10 µM
same,MFC<=99.9,Aspergillus niger [7],>10 µM
same,MFC<=99.9,Pichia kudriavzevii [8],2.5 µM
same,MFC,Aspergillus fumigatus [9],> 10 µM
same,MIC80,Aspergillus fumigatus [9],> 10 µM
same,MFC<=99.9,Curvularia lunata [10],1.3 µM
same,MFC<=99.9,Fusarium solani [11],>10 µM
same,MFC,Rhizopus arrhizus [12],> 10 µM
same,MIC80,Rhizopus arrhizus [12],> 10 µM
same,MFC<=99.9,Rhizopus arrhizus [13],>10 µM
same,MFC,Aspergillus terreus [14],> 10 µM
same,MIC80,Aspergillus terreus [14],2.5 µM
same,MFC<=99.9,Candida tropicalis [15],0.6 µM
same,MFC<=99.9,Aspergillus terreus [16],>10 µM
same,MFC<=99.9,Aspergillus fumigatus [17],>10 µM
same,MFC,Cryptococcus neoformans [18],2.5 µM
same,MIC80,Cryptococcus neoformans [18],2.5 µM
same,MFC<=99.9,Cryptococcus neoformans [19],2.5 µM
same,MFC,Fusarium solani [20],> 10 µM
same,MIC80,Fusarium solani [20],5 µM
same,MFC<=99.9,Hamigera insecticola [21],>10 µM
same,MFC<=99.9,Aspergillus flavus [22],>10 µM
same,MFC<=99.9,Aspergillus fumigatus [23],>10 µM
same,MFC<=99.9,Paecilomyces lilacinus [24],>10 µM
same,MFC,Candida albicans [25],0.6 µM
same,MIC80,Candida albicans [25],0.3 µM
same,MFC,Aspergillus niger [26],> 10 µM
same,MIC80,Aspergillus niger [26],5 µM
same,MFC,Candida parapsilosis [27],2.5 µM
same,MIC80,Candida parapsilosis [27],1.3 µM
same,MFC<=99.9,Candida albicans [28],0.6 µM
same,MFC<=99.9,Candida parapsilosis [29],2.5 µM
same,MFC<=99.9,Aspergillus fumigatus [30],>10 µM
same,MFC,Candida albicans [31],2.5 µM
same,MIC80,Candida albicans [31],0.6 µM
same,MFC,Mucor circinelloides [32],> 10 µM
same,MIC80,Mucor circinelloides [32],> 10 µM
same,MFC,Aspergillus fumigatus [33],> 10 µM
same,MIC80,Aspergillus fumigatus [33],> 10 µM
same,MFC,Curvularia lunata [34],1.3 µM
same,MIC80,Curvularia lunata [34],0.6 µM
same,MFC,Candida tropicalis [35],0.6 µM
same,MIC80,Candida tropicalis [35],0.6 µM
same,MFC<=99.9,Candida albicans [36],2.5 µM
C[C@@H]1C/C=C/C=C/C=C/C=C/[C@H](O[C@@H]2O[C@H](C)[C@@H](O)[C@H](N)[C@@H]2O)C[C@@H]2O[C@](O)(C[C@@H](O)C[C@H]3O[C@@H]3/C=C/C(=O)O1)C[C@H](O)[C@H]2C(=O)O,Activity,Candida albicans [37],Active
same,Activity,Aspergillus fumigatus [38],Active
same,Activity,Candida albicans [39],Active
